These results are taken from paper PMC4728608, “A Cell-Penetrating Peptide with a Guanidinylethyl Amine Structure Directed to Gene Delivery” (Scientific Reports, 2016).

Each structure is given as a SMILES string. Where two headings read alike, the source gives them in different places.

The conditions of data set [1]: cited from earlier work. From the text: The unnatural amino acid described herein was a lysine (Lys) derivative with a guanidinylethyl (GEt) group in the side chain amine [Lys(GEt)] (Fig. 1).
Data set [2] is described as follows: Potentiometric titration of model compounds. Particulars: for protonation degree α at pH 5.5 / protonation degree α at pH 7.4: 100 mM amine and/or guanidine in 100 mM HCl titrated with 100 mM NaOH. On the procedure: 1-Ethylamino-2-guanidinylethane hydrochloride, a model compound for Lys(GEt), was synthesized according to Supplementary Scheme S3 in order to clarify the protonation degree of the GEt amine structure within a range from pH 3 to pH 13. […] The monoprotonate state was a major form of the AEt amine structure at neutral pH. […] The GEt amine structure took the diprotonated form even at neutral pH, as expected.
N-Ethylethylenediamine hydrochloride (80.5 mg, 0.5 mmol) and 1-ethylamino-2-guanidinylethane hydrochloride (101.5 mg, 0.5 mmol) were separately dissolved in 100 mM HCl (10 mL) to obtain a solution with 100 mM amine and/or guanidine, and then titrated with 100 mM NaOH at 20 °C. Potentiometric titration was performed with a pH meter D-52 (Horiba, Kyoto, Japan). In this experiment, the titrant was added in quantities of 100 μL after the pH values were stabilized.

Where [3] appears, read: potentiometric titration, 20 °C.
[4] abbreviates: potentiometric titration, 100 mM in 100 mM HCl titrated with 100 mM NaOH, 20 °C.

`NCCCC[C@H](N)C(=O)O` [Lys, lysine]: in data set [1], the “pKa of protonated side chain (guanidine of Arg, primary amine of Lys)” value is reported as 10.2.
`CCNCCN.Cl` [N-Ethylethylenediamine hydrochloride]: in data set [2] (setting [3]), the “protonation degree α at pH 5.5” value came out at 0.97 and the “protonation degree α at pH 7.4” value amounted to 0.66. In data set [2] (setting [4]), this compound yielded a pKa1 of 7.1 and a pKa2 of 10.3.
Turning to `NCCNCCN` [diethylenetriamine], in data set [1], the “pKa of protonated secondary amine” value is recorded as 3.9.
`CCNCCNC(=N)N.Cl` [model compound for Lys(GEt), 1-Ethylamino-2-guanidinylethane hydrochloride]: in data set [2], the pKa1 was 8.8 and the pKa2 was 12.0. In data set [2] (setting [3]), the “protonation degree α at pH 5.5” value is reported as 0.99 and the “protonation degree α at pH 7.4” value was 0.96.
